From PubChem BioAssay AID1259375 (The Scripps Research Institute Molecular Screening Center, 2018)
The source made the active and inactive calls. How the calls were made is not given here.

target: Microphthalmia-associated transcription factor (Homo sapiens) (UniProt O75030); experiment: MITF inhibitors by FRET titration, dose response, biochemical, high throughput (AID 1259375); details: FRET biochemical assay, MITF inhibition;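 further: FRET between CFP-tagged and YFP-tagged MITF protein partners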
Sequence (O75030 whole entry, looked up): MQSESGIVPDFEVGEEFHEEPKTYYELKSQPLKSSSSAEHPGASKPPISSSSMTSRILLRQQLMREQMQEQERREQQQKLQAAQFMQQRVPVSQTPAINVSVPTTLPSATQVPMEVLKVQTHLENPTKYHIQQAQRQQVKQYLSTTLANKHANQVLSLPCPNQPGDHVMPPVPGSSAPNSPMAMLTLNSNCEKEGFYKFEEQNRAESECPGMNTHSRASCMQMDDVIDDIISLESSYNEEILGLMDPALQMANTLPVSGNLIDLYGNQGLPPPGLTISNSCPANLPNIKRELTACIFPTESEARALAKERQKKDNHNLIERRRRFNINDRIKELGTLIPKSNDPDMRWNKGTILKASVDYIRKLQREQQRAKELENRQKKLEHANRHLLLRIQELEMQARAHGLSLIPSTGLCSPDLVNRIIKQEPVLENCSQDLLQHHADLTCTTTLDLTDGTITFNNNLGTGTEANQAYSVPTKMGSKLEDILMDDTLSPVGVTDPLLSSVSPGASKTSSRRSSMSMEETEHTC

Structure (SMILES) | IC50
O=C1OC(c2ccc(Cl)cc2Cl)=N/C1=C\c1ccc([N+](=O)[O-])o1 | > 6.05 µM (inactive)
Cc1cc(C)n2nc(N)c(N)c2n1 | > 11.6 µM (inactive)
N#C/C(=C/c1ccco1)c1cccc(F)c1 | > 6.48 µM (inactive)
CCOC(=O)Cc1[nH]nc2c1C1(C(=O)N(CC)c3ccccc31)C(C#N)=C(N)O2 (stereo unspecified) | > 6.48 µM (inactive)
CCOc1ccccc1N1CCN(Cc2cc(OC)c(O)c([N+](=O)[O-])c2)CC1 | > 6.48 µM (inactive)
O=C(/C=C/c1ccco1)Nc1nnc(-c2ccco2)s1 | > 6.48 µM (inactive)
COC(=O)CSc1nnc(-c2ccco2)n1Cc1ccco1 | > 6.48 µM (inactive)
c1ccc2c(c1)OCC(c1nc3c(-c4ccncc4)cncc3[nH]1)O2 (stereo unspecified) | > 6.48 µM (inactive)
O=C(O)c1cccc(-n2cccc2/C=C2/NC(=O)N(c3ccc(Cl)cc3)C2=O)c1 | > 6.48 µM (inactive)
CN1CCN(CCNC(=O)c2cccc(CN(C(=O)c3nc4ccc(-c5cn[nH]c5)cc4s3)C3CC3)c2)CC1 | > 6.48 µM (inactive)
O=C1N[C@@H](Cc2ccccc2)C(=O)N2CCN(C(=O)NCc3ccccc3)C[C@H]12 | > 6.48 µM (inactive)
CCN(CC)c1ncnc2c1ncn2[C@@H]1O[C@H](COP(=O)(O)OP(=O)(O)C(Br)(Br)P(=O)(O)O)C(O)[C@@H]1O (stereo partly specified) | > 6.48 µM (inactive)
COc1cc(OC)c(CN2CCCC(O)C2)cc1Br (stereo unspecified) | > 6.48 µM (inactive)
C=C1c2c(Cl)ccc(O)c2C(O)=C2C(=O)[C@]3(O)C(O)=C(C(N)=O)C(=O)[C@@H](N(C)C)[C@@H]3[C@@H](O)[C@H]12 | 2.58 µM
COC(C)(C)CNC(=O)C1CCN(C2CCN(Cc3cccc(C)n3)CC2)CC1 | > 6.48 µM (inactive)
CC[C@H](C)[C@@H]1NC(=O)[C@H]2CN(C(=O)Nc3cccc(F)c3)CCN2C1=O | > 6.48 µM (inactive)
N#C/C(=C\c1ccc(-c2ccccc2C(=O)O)o1)C(=O)NCc1ccco1 | > 6.48 µM (inactive)
COc1ccc(OC)c(NC(=O)c2cc3ccc(O)cc3oc2=Nc2ccc(C(=O)O)cc2)c1 | > 5.54 µM (inactive)
c1ccc(-c2ccc(OCCCCn3cncn3)cc2)cc1 | > 6.48 µM (inactive)
NC(=O)c1ccc2nc(-c3cccs3)sc2c1 | > 6.18 µM (inactive)
CN(C)C1C(=O)C(C(N)=O)=C(O)C2(O)C(=O)C3=C(O)c4c(O)cccc4C(C)(O)C3CC12 (stereo unspecified) | > 6.48 µM (inactive)
O=C(O)c1cccc2c1C(=O)N(c1ccccc1)C2 | > 6.31 µM (inactive)

Structure (SMILES) | IC50
CCC[C@@H]1NC(=O)[C@H]2CN(C(=O)NCc3ccccc3)CCN2C1=O | > 6.48 µM (inactive)
O=S(=O)(N=S(=O)(/C=C/c1ccccc1)c1ccccc1)c1ccccc1 (stereo unspecified) | > 5.36 µM (inactive)
NS(=O)(=O)c1ccc(N=Cc2cc3c(cc2[N+](=O)[O-])OCO3)cc1 | > 6.48 µM (inactive)
Cc1ccc(N2C(=O)C3C(C2=O)C2(CO)C=CC3(C)O2)cc1[N+](=O)[O-] (stereo unspecified) | > 6.48 µM (inactive)
Cc1cc2c(c(=O)[nH]1)C(=O)O/C2=C\c1ccco1 | inactive
Cc1[nH][nH]c(=O)c1C(c1ccc([N+](=O)[O-])o1)c1c(C)[nH][nH]c1=O | > 6.48 µM (inactive)
O=C(OC1CCOC1=O)c1ccc(S(=O)(=O)NCc2ccco2)cc1 (stereo unspecified) | > 7.1 µM (inactive)
CC(Oc1ccc(O)cc1)(P(=O)(O)O)P(=O)(O)O | > 6.48 µM (inactive)
O=C1N[C@@H](CSCc2ccccc2)C(=O)N2CCN(C(=O)NCc3ccccc3)C[C@H]12 | > 6.48 µM (inactive)
O=C(COC(=O)COc1ccc(Cl)cc1)NCc1ccco1 | > 7.21 µM (inactive)
CCC(C)c1ccccc1OCCNCCN(C)C (stereo unspecified) | > 6.48 µM (inactive)
Nc1cccc(N2C(=O)c3cc(S(=O)O)cc4c(N)c(S(=O)O)cc(c34)C2=O)c1 | > 6.48 µM (inactive)
O=C(NCC(O)C(=O)N1CCOCC1)c1cccc(Nc2ccc3[nH]ncc3c2)n1 (stereo unspecified) | > 6.48 µM (inactive)
N#CC(C#N)=C(N)/C(C#N)=C/c1ccc([N+](=O)[O-])o1 | 4.85 µM
CCC12c3ccccc3C(c3ccccc31)C1C(=O)NC(=O)C12 (stereo unspecified) | > 6.48 µM (inactive)
COc1cc(N2CCOCC2)ccc1Nc1cc(Nc2ccccc2-n2cccn2)c(C(F)(F)F)cn1 | > 6.48 µM (inactive)
COC(=O)CN1C(=O)S/C(=C/c2ccc([N+](=O)[O-])o2)C1=O | > 6.48 µM (inactive)
O=C1N[C@@H](Cc2ccc(O)cc2)C(=O)N2CCN(C(=O)NC3CCCCC3)C[C@H]12 | > 6.48 µM (inactive)
O=C(O)c1coc(CNC(=O)c2cocc2C(=O)O)c1 | > 6.48 µM (inactive)
Nc1ccc(C(=O)O)c(O)c1 | 1.96 µM
O=C(/C=C/c1ccco1)NCCCCCCNC(=O)/C=C/c1ccco1 | > 6.48 µM (inactive)
C[C@@H](OCc1ccccc1)[C@@H]1NC(=O)[C@H]2CN(C(=O)NC3CCCCC3)CCN2C1=O | > 6.48 µM (inactive)

Structure (SMILES) | IC50
CCc1ccc(NC(=O)CCc2nc(C3=CCN(C)CC3)no2)cc1 | > 6.48 µM (inactive)
O=C(NNC(=S)Nc1ccccc1)C(=O)NNC(=S)Nc1ccccc1 | > 6.67 µM (inactive)
OC[C@H]1OC([S-])[C@H](O)[C@@H](O)[C@@H]1O.[Au+] (stereo partly specified) | > 6.48 µM (inactive)
O=c1[nH]c(/C=C/c2ccco2)nc(O)c1[N+](=O)[O-] | inactive
Cc1cc(O)c2c(c1)Cc1cccc(O)c1C2=O | > 6.48 µM (inactive)
O=C1N[C@@H](Cc2ccc(Cl)cc2)C(=O)N2CCN(C(=O)NCc3ccccc3)C[C@H]12 | > 6.48 µM (inactive)
CCOC(=O)C1C2NC(=S)N(CC)C1(C)Oc1ccc(Br)cc12 (stereo unspecified) | > 6.31 µM (inactive)
CC1CCC(N2CCN(Cc3ccco3)CC2)CC1 (stereo unspecified) | > 6.25 µM (inactive)
CCc1ccc(CN2CCN(C(C)C)CC2)cc1 | > 6.89 µM (inactive)
O=C(c1ccncc1)N1CCN(Cc2ccccc2[N+](=O)[O-])CC1 | > 6.13 µM (inactive)
O=C(Nc1ccc(C(=O)Nc2ccc(C(=O)Nc3ccc(S(=O)(=O)O)c4cc(S(=O)(=O)O)cc(S(=O)(=O)O)c34)cc2)cc1)Nc1ccc(C(=O)Nc2ccc(C(=O)Nc3ccc(S(=O)(=O)O)c4cc(S(=O)(=O)O)cc(S(=O)(=O)O)c34)cc2)cc1 | > 6.48 µM (inactive)
CCN1CCN(CCOCCOc2ccc(F)cc2)CC1 | > 6.48 µM (inactive)
O=C1N[C@H](CO)C(=O)N2CCN(C(=O)NCc3ccccc3)C[C@H]12 | > 6.48 µM (inactive)
CN(C)CCN(C(=O)OCc1ccccc1)c1cc(-c2cn[nH]c2)ccc1NC(=O)OCc1ccccc1 | > 6.48 µM (inactive)
CN1CC(=O)N2CCN(C(=O)NC3CCCCC3)C[C@@H]2C1=O | > 6.48 µM (inactive)
O=[N+]([O-])c1ccc(N/N=C/c2ccco2)c(S(=O)(=O)N2CCOCC2)c1 | > 6.48 µM (inactive)
C[C@@H]1NC(=O)[C@H]2CN(C(=O)NCc3ccccc3)CCN2C1=O | > 6.48 µM (inactive)
O=C(O)c1cc(S(=O)(=O)Nc2ccc(-n3cnnn3)cc2)ccc1O | > 7.18 µM (inactive)
CC(C)C[C@H]1NC(=O)[C@H]2CN(C(=O)NC3CCCCC3)CCN2C1=O | > 6.48 µM (inactive)
CC(C)(C)OC(=O)N1C(C(=O)O)CSC1c1cc2c(cc1[N+](=O)[O-])OCO2 (stereo unspecified) | > 6.48 µM (inactive)
COc1ccc(C)cc1NS(=O)(=O)c1ccc2c(c1)CCC(=O)N2 | > 6.48 µM (inactive)
COc1cc(/C=N/N=C2\NC(=O)C(CC(=O)O)S2)ccc1OCc1ccc(C)cc1 (stereo unspecified) | > 6.48 µM (inactive)

Structure (SMILES) | IC50
Cc1ncn(-c2ccc(N(C)c3ncc4cccc(-c5ccn[nH]5)c4n3)cc2)n1 | > 6.48 µM (inactive)
O=C(O)c1ccc(CNC(=O)c2cocc2C(=O)O)o1 | > 7.32 µM (inactive)
O=C(/C=C/c1ccco1)NCC(=O)N/N=C/c1ccc(C(=O)O)cc1 | > 6.48 µM (inactive)
N#CC1=c2/c(=C/c3ccco3)c(N)c(C#N)n2C(=O)C(c2ccco2)S1 (stereo unspecified) | 2.64 µM
O=C(NNC(=O)c1cc(-c2ccco2)nc2ccccc12)NC1CCCCC1 | > 6.48 µM (inactive)
O=P(O)(O)C(Cl)(Cl)P(=O)(O)O | > 6.48 µM (inactive)
Cc1cc(OCCOCCN2CCNCC2)ccc1Cl | > 6.48 µM (inactive)
Cc1ccc([N+](=O)[O-])cc1S(=O)(=O)Nc1ccc(Nc2ncccc2[N+](=O)[O-])cc1 | > 6.64 µM (inactive)
O=C(OCN1C(=O)c2ccccc2C1=O)c1cc2c(s1)CCC2 | > 7.13 µM (inactive)
CN(CCc1ccccn1)Cc1ccc(F)cc1 | > 6.59 µM (inactive)
O=C1N[C@@H](Cc2ccc(O)cc2)C(=O)N2CCN(C(=O)NCc3ccccc3)C[C@H]12 | > 6.48 µM (inactive)
O=C1N[C@H](Cc2ccccc2)C(=O)N2CCN(C(=O)NCc3ccccc3)C[C@H]12 | > 6.48 µM (inactive)
CC(O)(CNCCN1CCOCC1)COc1ccc(Cl)cc1 (stereo unspecified) | > 6.31 µM (inactive)
CNC(=O)Nc1ccc2nc(-c3ccco3)c(-c3ccco3)nc2c1 | > 6.48 µM (inactive)
Cc1cccc(N2CCN(C(=O)/C=C\C(=O)O)CC2)c1C | > 6.48 µM (inactive)
COCCCNC(=O)/C(C#N)=C/c1ccc(-c2ccc(C(=O)O)c(Cl)c2)o1 | > 6.48 µM (inactive)
O=C1Nc2c(C(=O)O)cccc2C1=O | > 7.92 µM (inactive)
N=C1S/C(=C\c2ccco2)C(=O)N1c1nonc1N | 3.61 µM
CCCCOc1ccc(C(=O)N/C(=C/c2ccco2)C(=O)O)cc1 | inactive
COc1nccnc1NS(=O)(=O)c1ccc(NC(=O)c2ccc([N+](=O)[O-])c(C)c2)cc1 | > 6.48 µM (inactive)
